In patent US11976280B2, “SMAC/Diablo inhibitors useful for treating cancer” (THE NATIONAL INSTITUTE FOR BIOTECHNOLOGY IN THE NEGEV LTD., priority 2017, dated 2024):
d = 2'-deoxy (DNA); r = 2'-OH (RNA)

System: A549 cells-derived tumors
Experiment: Next-generation sequencing (NGS) of si-NT- and si-hSMAC-A-treated tumors
Type: in vivo, human
Experimental: Libraries were prepared by the INCPM-RNA-seq unit (Weizmann Institute, Israel). Briefly, polyA fraction (mRNA) was purified from 500 ng of total RNA, isolated as above, followed by fragmentation and generation of double stranded cDNA. End repair, a base addition, adapter ligation and PCR amplification steps were performed according to established methods. Libraries were evaluated by Qubit and TapeStation. Sequencing libraries were constructed with barcodes to allow multiplexing of 20 samples in one lane. Between 22 and 26 million reads single-end 60-bp reads were sequenced per sample on Illumina HiSeq 2500 V4 instrument.
Bioinformatics analyses were carried out at the Bioinformatics Core Facility at the National Institute for Biotechnology in the Negev, Ben-Gurion University. Raw sequence reads were assessed for quality using FASTQC and further trimmed for removal of remaining adaptors and low quality bases using Trimmomatic. The trimmed reads from each sample were separately aligned to the human and mouse genomes (GRCh38 and GRCm38.75, respectively) using STAR v2.3.0 with default settings. An average of 23.7±0.8 million reads per sample was obtained. Of these, an average of 13, 2.6, 7.8 and 0.3 million reads were mapped to human only, mouse only, both human and mouse, and none of them, respectively. After rejection of multi-mapped reads, a total of 11.5±2.5 human-specific, uniquely mapped reads, and 2.3±1.7 mouse-specific, uniquely mapped reads were subjected for further analysis. The number of aligned reads per gene per sample were counted using HTSeq count with “intersection-nonempty” (to handle reads that overlap with more than one gene) and “no stranded” as parameters. The other parameters were set to their default. Normalization and statistical analysis for differential expression were carried out using DESeq2 v1.6.3. Fold change values were converted to linear scale, with a minus sign indicating down-regulation.
Differentially expressed genes were defined as those having a p-value<0.05, and linear fold change>1.5 and <−1.5. Functional analysis was performed using the Gene Ontology system, DAVID and Expander software tools.
NGS was used to investigate changes in patterns of gene expression in si-NT-TTs and si-hSMAC-A-TTs (FIG. 10, and Tables 3-5). […] As si-hSMAC is human-specific, any effect on mouse gene expression must be mediated by the human tumor cells.
The major functional groups were changes were seen are presented below.

[1] = vs si-NT-TTs, EXTRACELLULAR MATRIX
[2] = vs si-NT-TTs, EXTRACELLULAR SPACE
[3] = vs si-NT-TTs, METABOLISM RELATED ENZYMES
[4] = vs si-NT-TTs, METABOLISM RELATED ENZYMES, listed as si-SMAC
[5] = vs si-NT-TTs, REDOX STATE REGULATION

Substance: si-hSMAC-A: siRNA to human SMAC/Diablo; sense 5′AAGCGGUGUUUCUCAGAAUUGtt3′ (SEQ ID NO:20), antisense 5′AACAAUUCUGAGAAACCCGCtt3′ (SEQ ID NO:21) (sense AAGCGGUGUUUCUCAGAAUUGTT; antisense AACAAUUCUGAGAAACCCGCTT; sense: sugars from the 5' end r21 d2, backbone not given here; antisense: sugars from the 5' end r20 d2, backbone not given here)
- Fold change FBN1 [1]: −1.7 fold
- Fold change GPC6 [1]: −1.8 fold
- Fold change MMP2 [1]: −2.9 fold
- Fold change NLGN2 [1]: −1.8 fold
- Fold change SMOC1 [1]: −1.6 fold
- Fold change TGFBI [1]: −1.9 fold
- Fold change VCAN [1]: −1.5 fold
- Fold change VTN [1]: −1.6 fold
- Fold change CCL24 [2]: 1.9 fold
- Fold change CCL28 [2]: 1.9 fold
- Fold change CPM [2]: −1.7 fold
- Fold change CX3CL1 [2]: 1.6 fold
- Fold change IGFBP1 [2]: −1.6 fold
- Fold change IGFBP3 [2]: −1.8 fold
- Fold change LGALS3 [2]: 1.6 fold
- Fold change MST1 [2]: −1.6 fold
- Fold change PROC [2]: 1.8 fold
- Fold change SPINK1 [2]: 1.9 fold
- Fold change SPINT1 [2]: 1.7 fold
- Fold change WISP2 [2]: −1.7 fold
- Fold change ACSLA (acyl-CoA synthetase long-chain family member 4) [3]: −1.6 fold
- Fold change ADARB1 [3]: −2.1 fold
- Fold change ADH4 [3]: −2.6 fold
- Fold change ADI1 [3]: 1.8 fold
- Fold change AGPAT2 [3]: 1.6 fold
- Fold change B3GNT6 [3]: 2.1 fold
- Fold change BLVRA [3]: 1.7 fold
- Fold change CAD [3]: −1.6 fold
- Fold change CDA [3]: 2.0 fold
- Fold change CMAS [3]: 1.5 fold
- Fold change DGAT2 [3]: 4.9 fold
- Fold change DGKD [3]: −1.5 fold
- Fold change DHRS9 [3]: 2.8 fold
- Fold change ELOVL3 [3]: 7.4 fold
- Fold change ELOVL4 [3]: 145.2 fold
- Fold change ENTPD8 [3]: 2.7 fold
- Fold change FAR2 [3]: 4.1 fold
- Fold change FASN [3]: −1.5 fold
- Fold change FAXDC2 [3]: 2.1 fold
- Fold change FUT3 [3]: 2.7 fold
- Fold change FUT6 [3]: 1.8 fold
- Fold change GALNT5 [3]: 1.6 fold
- Fold change GALNT6 [3]: 1.9 fold
- Fold change GALNT12 [3]: 1.6 fold
- Fold change GCNT3 [3]: 1.7 fold
- Fold change GPT2 [3]: 1.5 fold
- Fold change LIPH [3]: 1.9 fold
- Fold change MGAT4B [3]: 1.5 fold
- Fold change ORMDL2 [3]: 1.5 fold
- Fold change PADI1 [3]: 3.8 fold
- Fold change PCK1 [3]: −6.9 fold
- Fold change PLCB4 [3]: 1.7 fold
- Fold change SDR16C5 [3]: 3.0 fold
- Fold change ST3GAL4 [3]: 1.5 fold
- Fold change ST6GALNAC1 [3]: 1.6 fold
- Fold change STARD10 [3]: 3.7 fold
- Fold change ELOVL3 [4]: 7 fold
- Fold change ELOVL4 [4]: 145 fold
- Fold change ANXA10 (vs si-NT-TTs, Mitochondria): −1.7 fold
- Fold change BIK (vs si-NT-TTs, Mitochondria): 2.1 fold
- Fold change C10orf2 (TWINK) (vs si-NT-TTs, Mitochondria): −1.9 fold
- Fold change CHCHD7 (vs si-NT-TTs, Mitochondria): 1.6 fold
- Fold change CPS1 (vs si-NT-TTs, Mitochondria): −4.8 fold
- Fold change CYP24A1 (vs si-NT-TTs, Mitochondria): −1.9 fold
- Fold change ENDOG (vs si-NT-TTs, Mitochondria): 1.8 fold
- Fold change MT-ND4L (vs si-NT-TTs, Mitochondria): −1.9 fold
- Fold change MT-ND5 (vs si-NT-TTs, Mitochondria): −1.6 fold
- Fold change MYO19 (vs si-NT-TTs, Mitochondria): −1.6 fold
- Fold change STARD13 (vs si-NT-TTs, Mitochondria): −2.2 fold
- Fold change GSTP1 [5]: −1.6 fold
- Fold change NOS1 [5]: −5.9 fold
- Fold change PXDN [5]: 3.3 fold
- Fold change SOD2 [5]: −1.9 fold
- Fold change TXN [5]: 2.1 fold
- Fold change ANO1 (vs si-NT-TTs, TRANSPORTERS): 3.4 fold
- Fold change ATP10B (vs si-NT-TTs, TRANSPORTERS): 25.5 fold
- Fold change CRACR2A (vs si-NT-TTs, TRANSPORTERS): 3.2 fold
- Fold change GLTP (vs si-NT-TTs, TRANSPORTERS): 1.8 fold
- Fold change KCNK1 (vs si-NT-TTs, TRANSPORTERS): 1.7 fold
- Fold change KCNN4 (vs si-NT-TTs, TRANSPORTERS): 1.8 fold
- Fold change SCNN1A (vs si-NT-TTs, TRANSPORTERS): 1.9 fold
- Fold change SLC4A4 (vs si-NT-TTs, TRANSPORTERS): −3.3 fold
- Fold change SLC6A9 (vs si-NT-TTs, TRANSPORTERS): −1.7 fold
- Fold change SLC24A1 (vs si-NT-TTs, TRANSPORTERS): −1.6 fold
- Fold change SLC25A37 (vs si-NT-TTs, TRANSPORTERS): −1.5 fold
- Fold change SLC44A4 (vs si-NT-TTs, TRANSPORTERS): 2.2 fold
- Fold change SLC45A3 (vs si-NT-TTs, TRANSPORTERS): 1.8 fold
- Fold change SLCO2B1 (vs si-NT-TTs, TRANSPORTERS): −2.8 fold
- Fold change TMC4 (vs si-NT-TTs, TRANSPORTERS): 6.3 fold
- Fold change TMC8 (vs si-NT-TTs, TRANSPORTERS): 2.4 fold
- Fold change ATP10B (vs si-NT-TTs, TRANSPORTERS, listed as si-SMAC): 25 fold
- number of genes with significant changes (≥1.5-fold change, adjusted P value<0.05, human and murine): 848
